The subject of the data set is U2OS, H460, HTB-9, ES2, HCT116, Capan, OVCAR3, DU145, SK-Mel-5, KB, A498, MCF-7, HepG2, T98G, K562, HeLa. The data set can be described thus: MTT Cytotoxic Assay of reaction products and isolated compounds. In kind it is cell-based. An excerpt: The peaks, fractions and compounds are selected according to the activities of times studies and the changes of peaks. Selecting the HPLC fractions for isolation is according to the cytotoxic activity of the reaction product obtained at a specific time. The compounds having strong to weak activities are selected and isolated. Selecting the HPLC fractions for isolation may be according to the cytotoxic activity of times studies and the change of peaks. The anti cancer activities are the MTT studies of bone (U2OS), lung (H460), bladder (HTB-9), ovary (ES2), colon (HCT116), pancreas (Capan), ovary (OVCAR3), prostate (DU145), skin (SK-Mel-5), mouth (KB), kidney (A498), breast (MCF-7), liver (HepG2), brain (T98G), luekemia (K562), cervix (HeLa).
Esterification, amidation, amination, or sulfonamidation of compound (A), (B), (C), (D1), (D2), (E), (F), (G), (H1), (H2), E4A, E4A2Y, E4D, E4D1, (P1), P(2), terpene, isoprene, triterpenes, hydroxylated triterpenes, with acyl halide, wherein the halide comprise chloride, bromide, fluoride and iodide, wherein the acyl halide comprise acyl chloride, wherein acyl chloride comprise tigloyl chloride, angeloyl chloride, acetyl chloride, crotonoyl chloride, 3,3-dimethylartyloyl chloride, senecioyl chloride, cinnamoyl chloride, pentenoyl chloride, hexanoyl chloride, benzoyl chloride, ethylbutyryl chloride, propionyl chloride, 2-propenoyl chloride, isobutyryl chloride, butyryl chloride, (2E)-2-pentenoyl chloride, 4-Pentenoyl chloride, 5-hexenoyl chloride, heptanoyl chloride, octanoyl chloride, nonanoyl chloride, decanoyl chloride, Lauroyl chloride, myristoyl chloride, oleoyl chloride. The compounds vary in composition when the time or temperature of the reaction is changed. The peaks, fractions and compounds are selected according to the activities of times studies and the changes of peaks. The compounds having strong to weak activities are selected and isolated. The anti cancer activities (Cytotoxic Assay) are the MTT studies of bone (U2OS), lung (H460), bladder (HTB-9), ovary (ES2), colon (HCT116), pancreas (Capan), ovary (OVCAR3), prostate (DU145), skin (SK-Mel-5), mouth (KB), kidney (A498), breast (MCF-7), liver (HepG2), brain (T98G), luekemia (K562), cervix (HeLa). The active esterification, amidation, amination, or sulfonamidation products are purified with HPLC. The reaction product of mixtures and individual compounds are tested with MTT Cytotoxic Assay. Details of method are in Experiment 3 of the present application. A second esterification of compound can be selected from the above experiment results to produce new active compounds. A partial esterification compound is selected from the above experiments to perform a second or repeated with a third esterification with different acyl chloride in order to produce new active compounds with the experiments in the present application. The active compounds of this invention are triterpenes in form of amine, sulfonamides, amide, and urea analogs, providing extremely stable activity in solution. They prolong the activities and duration of drug in a subject.
Cells. HTB-9 (bladder), HeLa-S3 (cervix), DU145 (prostate), H460 (lung), MCF-7 (breast), K562 (leukemia), HCT116 (colon), HepG2 (liver), U2OS (bone), T98G (brain), SK-MEL-5 (Skin) and OVCAR 3, ES2 (ovary), Pancreas (Capan), Mouth (KB), Kidney (A498).
MTT Assay. The procedure for MTT assay followed the method described by Carmichael et al. (1987) with modifications. The cells were seeded into a 96-well plate at for 24 hours before drug-treatment. The cells were then exposed to the drugs for 48, 72, or 96 hours. After the drug-treatment, MTT (0.5 mg/mL) was added to cultures and incubated for an hour. The formazan (product of the reduction of tetrazolium by viable cells) formed and was dissolved with DMSO and the O.D. at 490 nm, and was measured by an ELISA reader. The MTT level of the cells before drug-treatment was also measured (T0). […]

Regarding `CC(C)=CC(=O)NCC1(C)C(O)CCC2(C)C1CCC1(C)C2CC=C2C3CC(C)(C)C(O)C(O)C3(CNC(=O)C=C(C)C)C(O)CC21C` (centres unmarked) [BB2], the Cytotoxicity activity result is on record as “strong”.
As to `C=CC(=O)NCC1(C)C(N)CCC2(C)C1CCC1(C)C2CC=C2C3CC(C)(C)C(NC(=O)C=C)C(N)C3(CN)C(N)CC21C` (centres unmarked) [MM3], the Cytotoxicity activity result is reported as “moderate”.
The value for `C=CC(=O)NCC1(C)C(N)CCC2(C)C1CCC1(C)C2CC=C2C3CC(C)(C)C(N)C(N)C3(CNC(=O)C=C)C(N)CC21C` (centres unmarked) [MM1] was “moderate”; that for `CCCCCC(=O)NCC1(C)C(N)CCC2(C)C1CCC1(C)C2CC=C2C3CC(C)(C)C(NC(=O)CCCCC)C(N)C3(CN)C(N)CC21C` (centres unmarked) [DD3] was “moderate”; that for `CCC(=O)NCC1(C)C(N)CCC2(C)C1CCC1(C)C2CC=C2C3CC(C)(C)C(NC(=O)CC)C(N)C3(CNC(=O)CC)C(N)CC21C` (centres unmarked) [LL4] was “weak”.
With `CC(=O)NCC1(C)C(O)CCC2(C)C1CCC1(C)C2CC=C2C3CC(C)(C)C(O)C(O)C3(CNC(C)=O)C(O)CC21C` (centres unmarked) [HH2], the Cytotoxicity activity result is listed as “strong”.
As for `CC(C)=CC(=O)NCC1(C)C(N)CCC2(C)C1CCC1(C)C2CC=C2C3CC(C)(C)C(N)C(N)C3(CNC(=O)C=C(C)C)C(N)CC21C` (centres unmarked) [BB1], the Cytotoxicity activity entry was “moderate”.
The value for `CCC(CC)C(=O)NCC1(C)C(N)CCC2(C)C1CCC1(C)C2CC=C2C3CC(C)(C)C(NC(=O)C(CC)CC)C(N)C3(CNC(=O)C(CC)CC)C(N)CC21C` (centres unmarked) [EE4] was “weak”; that for `CCC=CC(=O)NCC1(C)C(N)CCC2(C)C1CCC1(C)C2CC=C2C3CC(C)(C)C(N)C(N)C3(CNC(=O)C=CCC)C(N)CC21C` (centres unmarked) [QQ1] was “moderate”.
For the molecule `CCC(CC)C(=O)NCC1(C)C(N)CCC2(C)C1CCC1(C)C2CC=C2C3CC(C)(C)C(NC(=O)C(CC)CC)C(N)C3(CN)C(N)CC21C` (centres unmarked) [EE3], the Cytotoxicity activity result is on record as “moderate”.
`CCC(=O)NCC1(C)C(N)CCC2(C)C1CCC1(C)C2CC=C2C3CC(C)(C)C(N)C(N)C3(CNC(=O)CC)C(N)CC21C` (centres unmarked) [LL1]: the Cytotoxicity activity result is reported as “moderate”.
As for `CC=C(C)C(=O)NCC1(C)C(N)CCC2(C)C1CCC1(C)C2CC=C2C3CC(C)(C)C(NC(=O)C(C)=CC)C(N)C3(CNC(=O)C(C)=CC)C(N)CC21C` (centres unmarked) [AA4], the Cytotoxicity activity entry is on record as “weak”.
With `CCC=CC(=O)NCC1(C)C(O)CCC2(C)C1CCC1(C)C2CC=C2C3CC(C)(C)C(O)C(O)C3(CNC(=O)C=CCC)C(O)CC21C` (centres unmarked) [QQ2], the Cytotoxicity activity result is “strong”.
The value for `CC1(C)CC2C3=CCC4C5(C)CCC(O)C(C)(CNC(=O)c6ccccc6)C5CCC4(C)C3(C)CC(O)C2(CNC(=O)c2ccccc2)C(O)C1O` (centres unmarked) [KK2] was “strong”.
As for `CC=C(C)C(=O)NCC1(C)C(O)CCC2(C)C1CCC1(C)C2CC=C2C3CC(C)(C)C(O)C(O)C3(CNC(=O)C(C)=CC)C(O)CC21C` (centres unmarked) [AA2], the entry is “strong”.
As to `CC1(C)CC2C3=CCC4C5(C)CCC(N)C(C)(CNC(=O)c6ccccc6)C5CCC4(C)C3(C)CC(N)C2(CNC(=O)c2ccccc2)C(N)C1N` (centres unmarked) [KK1], the Cytotoxicity activity result is reported as “moderate”.
The value for `CCCC(=O)NCC1(C)C(N)CCC2(C)C1CCC1(C)C2CC=C2C3CC(C)(C)C(NC(=O)CCC)C(N)C3(CNC(=O)CCC)C(N)CC21C` (centres unmarked) [PP4] was “weak”; that for `CC(C)C(=O)NCC1(C)C(O)CCC2(C)C1CCC1(C)C2CC=C2C3CC(C)(C)C(O)C(O)C3(CNC(=O)C(C)C)C(O)CC21C` (centres unmarked) [NN2] was “strong”; that for `CCC(=O)NCC1(C)C(O)CCC2(C)C1CCC1(C)C2CC=C2C3CC(C)(C)C(O)C(O)C3(CNC(=O)CC)C(O)CC21C` (centres unmarked) [LL2] was “strong”.
The value for `CCCC(=O)NCC1(C)C(N)CCC2(C)C1CCC1(C)C2CC=C2C3CC(C)(C)C(NC(=O)CCC)C(N)C3(CN)C(N)CC21C` (centres unmarked) [PP3] was “moderate”; that for `CC=CC(=O)NCC1(C)C(N)CCC2(C)C1CCC1(C)C2CC=C2C3CC(C)(C)C(NC(=O)C=CC)C(N)C3(CN)C(N)CC21C` (centres unmarked) [I I3] was “moderate”; that for `C=CC(=O)NCC1(C)C(O)CCC2(C)C1CCC1(C)C2CC=C2C3CC(C)(C)C(O)C(O)C3(CNC(=O)C=C)C(O)CC21C` (centres unmarked) [MM2] was “strong”.
As to `C=CCCC(=O)NCC1(C)C(N)CCC2(C)C1CCC1(C)C2CC=C2C3CC(C)(C)C(NC(=O)CCC=C)C(N)C3(CNC(=O)CCC=C)C(N)CC21C` (centres unmarked) [CC4], the Cytotoxicity activity result is listed as “weak”.
Turning to `CC1(C)CC2C3=CCC4C5(C)CCC(N)C(C)(CNC(=O)C=Cc6ccccc6)C5CCC4(C)C3(C)CC(N)C2(CNC(=O)C=Cc2ccccc2)C(N)C1N` (centres unmarked) [JJ1], the Cytotoxicity activity result is given as “moderate”.
Consider `CCCCCC(=O)NCC1(C)C(O)CCC2(C)C1CCC1(C)C2CC=C2C3CC(C)(C)C(O)C(O)C3(CNC(=O)CCCCC)C(O)CC21C` (centres unmarked) [DD2], for which the Cytotoxicity activity result is “strong”.
As for `CC1(C)CC2C3=CCC4C5(C)CCC(N)C(C)(CNC(=O)C=Cc6ccccc6)C5CCC4(C)C3(C)CC(N)C2(CNC(=O)C=Cc2ccccc2)C(N)C1NC(=O)C=Cc1ccccc1` (centres unmarked) [JJ4], the entry is “weak”; as for `CC=CC(=O)NCC1(C)C(N)CCC2(C)C1CCC1(C)C2CC=C2C3CC(C)(C)C(N)C(N)C3(CNC(=O)C=CC)C(N)CC21C` (centres unmarked) [II 1], “moderate”; as for `CC=C(C)C(=O)NCC1(C)C(N)CCC2(C)C1CCC1(C)C2CC=C2C3CC(C)(C)C(NC(=O)C(C)=CC)C(N)C3(CN)C(N)CC21C` (centres unmarked) [AA3], “moderate”.
In the case of `C=CCCC(=O)NCC1(C)C(N)CCC2(C)C1CCC1(C)C2CC=C2C3CC(C)(C)C(NC(=O)CCC=C)C(N)C3(CN)C(N)CC21C` (centres unmarked) [CC3], the Cytotoxicity activity entry is reported as “moderate”.
As for `CC(C)C(=O)NCC1(C)C(N)CCC2(C)C1CCC1(C)C2CC=C2C3CC(C)(C)C(N)C(N)C3(CNC(=O)C(C)C)C(N)CC21C` (centres unmarked) [NN1], the Cytotoxicity activity result is “moderate”.
With `CC=CC(=O)NCC1(C)C(N)CCC2(C)C1CCC1(C)C2CC=C2C3CC(C)(C)C(NC(=O)C=CC)C(N)C3(CNC(=O)C=CC)C(N)CC21C` (centres unmarked) [II 4], the Cytotoxicity activity result is on record as “weak”.
Regarding `C=CCCC(=O)NCC1(C)C(O)CCC2(C)C1CCC1(C)C2CC=C2C3CC(C)(C)C(O)C(O)C3(CNC(=O)CCC=C)C(O)CC21C` (centres unmarked) [CC2], the Cytotoxicity activity entry was “strong”.
As for `CC1(C)CC2C3=CCC4C5(C)CCC(N)C(C)(CNC(=O)C=Cc6ccccc6)C5CCC4(C)C3(C)CC(N)C2(CN)C(N)C1NC(=O)C=Cc1ccccc1` (centres unmarked) [JJ3], the Cytotoxicity activity entry was “moderate”.
For `CCC(CC)C(=O)NCC1(C)C(O)CCC2(C)C1CCC1(C)C2CC=C2C3CC(C)(C)C(O)C(O)C3(CNC(=O)C(CC)CC)C(O)CC21C` (centres unmarked) [EE2], the Cytotoxicity activity entry is “strong”.
With `CC(=O)NCC1(C)C(N)CCC2(C)C1CCC1(C)C2CC=C2C3CC(C)(C)C(NC(C)=O)C(N)C3(CNC(C)=O)C(N)CC21C` (centres unmarked) [HH4], the Cytotoxicity activity result is “weak”.
Consider `CC1(C)CC2C3=CCC4C5(C)CCC(N)C(C)(CNC(=O)c6ccccc6)C5CCC4(C)C3(C)CC(N)C2(CN)C(N)C1NC(=O)c1ccccc1` (centres unmarked) [KK3], for which the Cytotoxicity activity result is listed as “moderate”.
As for `C=CCCC(=O)NCC1(C)C(N)CCC2(C)C1CCC1(C)C2CC=C2C3CC(C)(C)C(N)C(N)C3(CNC(=O)CCC=C)C(N)CC21C` (centres unmarked) [CC1], the entry is “moderate”.
The value for `CC(C)=CC(=O)NCC1(C)C(N)CCC2(C)C1CCC1(C)C2CC=C2C3CC(C)(C)C(NC(=O)C=C(C)C)C(N)C3(CN)C(N)CC21C` (centres unmarked) [BB3] was “moderate”.

The record behind these values is patent US20230159436A1, “APPLICATIONS OF AMIDE ANALOGS OF TRITERPENES IN CURES OF CANCER AND OTHER DISEASES” (Pacific Arrow Limited, priority 2021, published 2023).
